What was measured:
[1] = molecular target: T1, 5-HT1A serotonin receptor (Rattus norvegicus, UniProt P19327); assay: displacement of [3H] 8-OH DPAT from the 5-HT1A serotonin receptor (procedure of Hall et al.); type: binding; details: for inhibition at 0.1 µM / inhibition at 1 µM: read-out: Affinity for 5HT1A Receptor % Inhibition; for IC50: [3H] 8-OH DPAT displacement, read-out: Affinity for 5HT1A Receptor IC50
T1 sequence (P19327 1-422): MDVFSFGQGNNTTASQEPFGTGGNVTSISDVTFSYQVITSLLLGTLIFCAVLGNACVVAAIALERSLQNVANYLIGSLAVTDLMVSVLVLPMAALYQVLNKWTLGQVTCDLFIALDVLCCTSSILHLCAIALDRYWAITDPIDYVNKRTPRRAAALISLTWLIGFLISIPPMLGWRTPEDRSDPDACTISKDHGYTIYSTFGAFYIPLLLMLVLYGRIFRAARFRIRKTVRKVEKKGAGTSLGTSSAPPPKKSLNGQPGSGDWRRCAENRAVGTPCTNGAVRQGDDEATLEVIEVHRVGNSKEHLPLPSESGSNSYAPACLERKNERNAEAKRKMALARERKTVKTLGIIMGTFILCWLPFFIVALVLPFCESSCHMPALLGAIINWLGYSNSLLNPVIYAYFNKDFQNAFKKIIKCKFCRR
Description: 8-OH DPAT (dipropylaminotetralin) from the 5-HT1A serotonin receptor by the procedure of Hall et al., J. Neurochem.

D2 dopamine receptor = D2 dopamine receptor (Rattus norvegicus, UniProt P61169); assay: D2 dopamine receptor binding study with 3H-spiroperiodol in homogenized limbic brain tissue; details: read-out: Affinity for D2 Receptor % Inhibition
D2 dopamine receptor, sequence (P61169 whole entry): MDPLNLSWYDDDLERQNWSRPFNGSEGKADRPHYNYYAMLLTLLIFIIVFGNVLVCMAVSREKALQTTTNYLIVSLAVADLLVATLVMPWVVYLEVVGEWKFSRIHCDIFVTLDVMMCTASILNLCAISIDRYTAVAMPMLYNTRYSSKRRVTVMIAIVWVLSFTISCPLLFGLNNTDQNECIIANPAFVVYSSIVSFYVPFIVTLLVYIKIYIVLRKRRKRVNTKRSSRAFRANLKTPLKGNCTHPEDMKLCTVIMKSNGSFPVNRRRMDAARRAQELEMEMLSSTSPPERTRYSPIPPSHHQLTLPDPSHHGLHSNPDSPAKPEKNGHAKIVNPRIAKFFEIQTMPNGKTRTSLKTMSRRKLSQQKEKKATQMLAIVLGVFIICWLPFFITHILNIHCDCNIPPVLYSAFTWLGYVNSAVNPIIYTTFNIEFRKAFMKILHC
Method: The D2 dopamine receptor binding study was in accordance with a modification of the procedure of Field et al., Brain Res., 136, pp. 578-584 (1977) and Yamamura et al., eds., Neurotransmitter Receptor Binding, Raven Press, N.Y. (1978), wherein homogenized limbic brain tissue is incubated with ^3H-spiroperiodol and various concentrations of test compounds, filtered and washed and shaken with Hydrofluoro scintillation cocktail (National Diagnostics) and counted in a Packard 460CD scintillation counter.

SMILES | inhibition at 0.1 µM [1] [%] | inhibition at 0.1 µM (D2 dopamine receptor; at 0.1 µM) [%] | inhibition at 1 µM (D2 dopamine receptor; at 1 µM) [%] | IC50 [1] [nM] | inhibition at 1 µM [1] [%] | inhibition at 10 µM (D2 dopamine receptor; at 10 µM) [%]
COc1ccccc1N1CCN(CCC(=O)NC2(C)CCCCC2)CC1 [Example 4, 4-(2-Methoxyphenyl)-N-(1-methylcyclohexyl)-1-piperazinepropanamide] | 56 | – | – | – | – | –
COc1ccccc1N1CCN(CC(C(=O)NC(C)(C)C)c2ccccc2)CC1 (racemic) [Example 2, N-Tertiary-butyl 3-[4-(2-methoxyphenyl)piperazinyl]-2-phenyl-propanamide] | 69 | 8 | 32 | 25 | 86 | –
COc1ccccc1N1CCN(CCC(=O)NC(C)(C)C)CC1 [Example 6, N-(1,1-Dimethylethyl)-3-[4-(2-methoxyphenyl)-1-piperazinyl]-propanamide] | 18 | – | – | 287 | 72 | –
COc1ccccc1N1CCN(CC(Cc2ccccc2)C(=O)NC(C)(C)C)CC1 (racemic) [Example 3, N-Tertiary-butyl 2-[[4-(2-methoxyphenyl)piperazinyl]methyl]-3-phenyl-propanamide] | 90 | – | – | 11.4 | 100 | 38
